Test results as given in PMC12951568, “Identifying Structural Factors Governing the Photodynamic Activity of Phthalocyanines” (Journal of Medicinal Chemistry, 2026).
Like-named read-outs stand apart in the source and are kept apart here.

Legend:
[1] = molecular target: bovine serum albumin (BSA) (Bos taurus, UniProt P02769); experiment: Interaction with bovine serum albumin (absorption and emission spectra in PBS); format: binding; conditions: 1 μM Pc in PBS, BSA 17.5, 35 and 100 μM
[2] = system: HeLa (human cervical carcinoma); experiment: Photodynamic activity (phototoxicity, neutral red uptake) on HeLa; format: cell-based
Protocol: (§1) Detailed in vitro studies involving subcellular localization and determination of the EC50 in three different cell lines (human cervical carcinoma–HeLa, human breast adenocarcinoma–MCF-7, and human skin melanoma–SK-MEL-28) were performed. A broadband light source (ozone-free 450 W Xe-lamp, Newport) equipped with the long-pass filter Schott OG570 was used (12.4 mW/cm^2, 15 min, 11.2 J/cm^2).
(§2) For the cytotoxicity experiments (phototoxicity), cells were seeded at 100 μL per well into 96-well plates (TPP, Switzerland) at a density of 7.5 × 10^3 (HeLa) or 1.0 × 10^4 (MCF-7 and SK-MEL-28) cells per well. Cells were left to grow for 24 h (until they reached confluency) in a controlled environment of a CO2 incubator (37 °C, 5% CO2 atmosphere, constant high humidity). Subsequently, studied compounds were added in a wide concentration range and incubated with the cells for 12 h. Cells were washed; fresh cell culture medium was added, and the cells were irradiated using a 450 W Xe lamp (Newport, USA). The lamp was equipped with a long pass filter (Newport OG570) and an 8 cm water filter (λ > 570 nm, 12.4 mW/cm^2, 15 min, 11.2 J/cm^2). Cellular viability was assessed after an additional 24 h by the neutral red (NR; Sigma, Merck, USA) uptake assay. At least three independent experiments, each in triplicate, were performed. The soluble NR was measured at λ = 540 nm using a Tecan Infinite 200 M plate reader (Tecan, Austria). The viability of each experimental group was expressed as the percentage of the untreated cells (100% viability) after subtraction of the signal from cells treated with a lethal dose of hydrogen peroxide (0% viability). […] EC50 values were calculated, and graphs were created by using GraphPad Prism 10.3.1 (Graph Pad software, USA).

[3] = Log P, partition between n-octanol and PBS; format: physicochemical; conditions: partition coefficient between 1-octanol and PBS
Protocol: 400 μL portion of n-octanol and 400 μL of PBS buffer were mixed in a plastic Eppendorf vial. Then, 20 μL of the 100 μM stock solution of the sample (see above) was added to this mixture, vortexed for 5 min at rt, and then centrifuged for 10 min (10 000 rpm, rt). 50 μL of each of these layers was taken into 2.5 mL of DMF in a quartz cuvette, and their emission spectra (excitation wavelengths in Table ) were recorded. The log P value was then computed using the area under the curve of the emission spectra of n-octanol (F oct) and PBS buffer (F PBS) layers as follows: logP=log(Foct/FPBS) Triplicate measurements were performed, and the data reported are the mean of the obtained results.

[4] = system: HeLa (human cervical carcinoma); conditions: 12 h incubation, Xe-lamp 15 min, λ > 570 nm, 11.2 J/cm^2; mean ± SD; determined previously under the same conditions at the same workplace and published; ref number not given; read-out: EC50 (nM) HeLa; cited from earlier work
[5] = system: SK-MEL-28 (human skin melanoma); experiment: Photodynamic activity (phototoxicity, neutral red uptake) on SK-MEL-28; format: cell-based; conditions: 12 h incubation, Xe-lamp 15 min, λ > 570 nm, 11.2 J/cm^2; mean ± SD; t.w. = this work
Protocol: as §1, §2

[6] = system: MCF-7 (human breast adenocarcinoma); design: method as in number not printed in Table 2; conditions: 12 h incubation, Xe-lamp 15 min, λ > 570 nm, 11.2 J/cm^2; mean ± SD; determined previously under the same conditions at the same workplace and published; ref number not given; cited from earlier work
[7] = Quantum yield of singlet oxygen production, comparative method with DPBF scavenger; format: physicochemical; conditions: in DMF, ZnPc as reference
Protocol: Eight μL of the 100 μM stock solution of the dye in DMF (or DMF + water or water; see above) was added. A xenon lamp (100 W, ozone free XE DC short arc lamp, New port) was used to irradiate the sample while stirring. The incident light was filtered through a water filter (6 cm) and cut off filter OG530 eliminating heat and light under 523 nm, respectively. […] The decrease of DPBF in solution with irradiation time was monitored at 415 nm. The values of ΦΔ of the dyes were calculated by the following equation: φΔS=φΔ[…] is the slope of the plot of the dependence of ln([…] 0 and A t being the absorbances of the DPBF at 415 nm before irradiation and after irradiation time t, respectively. I aT is the total amount of light absorbed by the dye sample. Superscripts R and S indicate the reference and sample, respectively. I aT is calculated as a sum of intensities of the absorbed light I a at wavelengths from 523 to 850 nm (step 0.5 nm). Light under 523 nm is completely filtered by an OG530 filter, and light above 850 nm is not absorbed by the studied dye sample. I a at a given wavelength is calculated using Beer-Lambert'[…]) where I 0 is transmittance of the filter at the given wavelength and A is the absorbance of the dye at this wavelength. All experiments were performed three times, and the data presented is the mean value of the three obtained results with estimated error ± 10%.

[8] = Absorption and fluorescence emission spectra in DMF; format: physicochemical; conditions: in DMF
Protocol: An absorption spectrum of 2.475 mL of solvent (water, DMF, or PBS) was taken (i.e., absorption spectrum of baseline); then, 25 μL of stock solution was added to reach the final concentration of 1 μM in the cuvette, and the absorption and emission spectra were taken. Baseline of the solvent was subtracted from the obtained absorption spectrum to get the final absorption spectrum of the sample.

[9] = Fluorescence quantum yield, comparative method; format: physicochemical; conditions: in DMF; ZnPc as reference
Protocol: The fluorescence quantum yields (ΦF) were determined by a comparative method with ZnPc as the reference (ΦF = 0.32 in THF). The ΦF values were calculated using the following formula: ϕFS=ϕFR(F^S/F^R)(1−10^−A^R/1−10^−A^S)(η^S/η^R)^2 where F is the integrated area under the emission spectrum and A is the absorbance at the excitation wavelength. Superscripts R and S indicate the reference and sample, respectively. η stands for the refractive index of the solvent. Absorption in the Q-band was kept below 0.05 to eliminate the inner filter effect. Excitation wavelengths were the same as those used for emission spectra (see above). The emission wavelengths were set to their emission maxima to avoid exceeding the detector limit with stimated error ± 15%.

[10] = Fluorescence lifetime in DMF; format: physicochemical
Source text: 1 Photophysical Data of Investigated Derivatives in DMF ^a | column: τF1/ns; τF2/ns

[11] = system: MCF-7 (human breast adenocarcinoma); experiment: Photodynamic activity (phototoxicity, neutral red uptake) on MCF-7; format: cell-based
Protocol: as §1, §2

[12] = in DMF; ref number not given; cited from earlier work
[13] = 12 h incubation, Xe-lamp 15 min, λ > 570 nm, 11.2 J/cm^2, mean ± SD, t.w. = this work

Sequence of bovine serum albumin (BSA) (P02769 25-607): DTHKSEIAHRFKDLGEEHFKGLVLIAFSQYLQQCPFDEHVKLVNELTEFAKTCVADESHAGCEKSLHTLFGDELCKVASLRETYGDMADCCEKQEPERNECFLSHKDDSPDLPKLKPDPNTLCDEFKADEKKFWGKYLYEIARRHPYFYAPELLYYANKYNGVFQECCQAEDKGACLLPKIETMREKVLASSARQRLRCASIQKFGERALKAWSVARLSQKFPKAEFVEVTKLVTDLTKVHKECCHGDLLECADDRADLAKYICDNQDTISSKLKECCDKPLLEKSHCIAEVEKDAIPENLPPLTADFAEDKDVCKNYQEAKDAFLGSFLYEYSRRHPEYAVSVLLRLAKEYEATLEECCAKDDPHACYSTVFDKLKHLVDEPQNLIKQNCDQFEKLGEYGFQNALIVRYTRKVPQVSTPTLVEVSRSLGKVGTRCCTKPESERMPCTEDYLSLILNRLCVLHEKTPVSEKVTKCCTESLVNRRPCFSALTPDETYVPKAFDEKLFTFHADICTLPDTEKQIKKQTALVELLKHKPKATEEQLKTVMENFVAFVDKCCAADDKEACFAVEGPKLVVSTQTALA

Compound | Interaction with BSA: disaggregation/monomerization and changes in absorption and fluorescence emission spectra [1] | fold higher photodynamic activity vs symmetrical hydrophilic counterparts ([2]; HeLa, unsymmetrical anionic A1Zn, A2Zn vs A3Zn, A4Zn) | Log P [3] | EC50 [4] [nM] | EC50 [5] [nM] | EC50 [6] [nM] | ΦΔ, quantum yield of singlet oxygen production [7] | λF, fluorescence emission maximum [8] [nm] | ΦF, fluorescence quantum yield [9] | τF1, fluorescence lifetime (relative amplitude in brackets) [10] | τF2, fluorescence lifetime (relative amplitude in brackets) [10] | ε, extinction coefficient [8] | λA, absorption maximum in the Q-band [8] [nm] | increase in activity of C12Zn in comparison with C3Zn (fold) ([2]; HeLa cells) | increase in activity of C12Zn in comparison with C3Zn (fold) ([11]; MCF-7 cells) | EC50 [2, 13] [nM] | EC50 [11, 13] [nM] | ΦΔ of the reference standard [12]
O=C([O-])c1cc(Oc2cc3c(cc2Oc2cc(C(=O)[O-])cc(C(=O)[O-])c2)C2=Nc4c5ccccc5c5[n]4[Zn][n]4c(c6ccccc6c4=NC3=N2)=NC2=NC(=N5)c3ccccc32)cc(C(=O)[O-])c1.[Na+].[Na+].[Na+].[Na+] [A1Zn] | complete | ~21 | –2.70 | 290 ± 78 | 530 ± 30 | 453 ± 26 | 0.26 | 682 | 0.035 | 0.44 (15%) ns | 2.51 (85%) ns |  |  |  |  |  |  | 
Cc1cc(Cn2cc[n+](C)c2)c(Oc2c3c(c(C)c(C)[n+]2C)C2=NC3=Nc3c4cc(SC(C)(C)C)c(SC(C)(C)C)cc4c4[n]3[Zn][n]3c(c5cc(SC(C)(C)C)c(SC(C)(C)C)cc5c3=N2)=NC2=NC(=N4)c3cc(SC(C)(C)C)c(SC(C)(C)C)cc32)c(Cn2cc[n+](C)c2)c1.[I-].[I-].[I-] [C2Zn] |  |  | 1.38 | 105 ± 34 | 62 ± 11 | 65 ± 8 | 0.70 | 718 | 0.30 | 1.67 ns |  | 177 880 M^–1cm^–1 | 708 |  |  |  |  | 
CSc1cc2c(cc1SC)C1=Nc3c4cc(SC)c(SC)cc4c4[n]3[Zn][n]3c(c5cc(SC)c(SC)cc5c3=NC2=N1)=NC1=NC(=N4)c2cc(Oc3c(Cn4cc[n+](C)c4)cc(C)cc3Cn3cc[n+](C)c3)c(Oc3c(Cn4cc[n+](C)c4)cc(C)cc3Cn3cc[n+](C)c3)cc21.[I-].[I-].[I-].[I-] [C4Zn] |  |  | 0.62 | 79 ± 20 | 108 ± 24 | 61 ± 9 | 0.44 | 709 | 0.21 |  |  | 106 360 M^–1cm^–1 | 697 |  |  |  |  | 
Cc1cc(Cn2cc[n+](C)c2)c(Oc2cc3c(cc2Oc2c(Cn4cc[n+](C)c4)cc(C)cc2Cn2cc[n+](C)c2)C2=Nc4c5cc(Oc6c(Cn7cc[n+](C)c7)cc(C)cc6Cn6cc[n+](C)c6)c(Oc6c(Cn7cc[n+](C)c7)cc(C)cc6Cn6cc[n+](C)c6)cc5c5[n]4[Zn][n]4c(c6cc(Oc7c(Cn8cc[n+](C)c8)cc(C)cc7Cn7cc[n+](C)c7)c(Oc7c(Cn8cc[n+](C)c8)cc(C)cc7Cn7cc[n+](C)c7)cc6c4=NC4=NC(=N5)c5cc(Oc6c(Cn7cc[n+](C)c7)cc(C)cc6Cn6cc[n+](C)c6)c(Oc6c(Cn7cc[n+](C)c7)cc(C)cc6Cn6cc[n+](C)c6)cc54)=NC3=N2)c(Cn2cc[n+](C)c2)c1.[I-].[I-].[I-].[I-].[I-].[I-].[I-].[I-].[I-].[I-].[I-].[I-].[I-].[I-].[I-].[I-] [C12Zn] |  |  | –2.08 | 37 ± 6 | 45 ± 7 | 11 ± 3 | 0.48 | 687 | 0.20 | 0.62 (7%) ns | 2.23 (93%) ns | 244 030 M^–1cm^–1 | 679 | 1.3 | 2 |  |  | 
Cc1cc(Cn2c[n+](C)cn2)c(Oc2cc3c(cc2Oc2c(Cn4c[n+](C)cn4)cc(C)cc2Cn2c[n+](C)cn2)C2=Nc4c5cc(Oc6c(Cn7c[n+](C)cn7)cc(C)cc6Cn6c[n+](C)cn6)c(Oc6c(Cn7c[n+](C)cn7)cc(C)cc6Cn6c[n+](C)cn6)cc5c5[n]4[Zn][n]4c(c6cc(Oc7c(Cn8c[n+](C)cn8)cc(C)cc7Cn7c[n+](C)cn7)c(Oc7c(Cn8c[n+](C)cn8)cc(C)cc7Cn7c[n+](C)cn7)cc6c4=NC4=NC(=N5)c5cc(Oc6c(Cn7c[n+](C)cn7)cc(C)cc6Cn6c[n+](C)cn6)c(Oc6c(Cn7c[n+](C)cn7)cc(C)cc6Cn6c[n+](C)cn6)cc54)=NC3=N2)c(Cn2c[n+](C)cn2)c1.[I-].[I-].[I-].[I-].[I-].[I-].[I-].[I-].[I-].[I-].[I-].[I-].[I-].[I-].[I-].[I-] [C13Zn] |  |  | –3.47 | 12 ± 4 | 56 ± 6 | 5.3 ± 0.8 | 0.37 | 687 | 0.20 | 0.60 (4%) ns | 2.27 (96%) ns | 236 490 M^–1cm^–1 | 679 |  |  |  |  | 
NCCc1ccc(Oc2cccc3c2C2=NC3=Nc3c4ccccc4c4[n]3[Zn][n]3c(c5ccccc5c3=N2)=NC2=NC(=N4)c3ccccc32)cc1 [C15Zn] | Partial monomerization |  | 3.32 |  | 25 ± 6 |  | 0.53 | 684 | 0.20 | 1.23 (7%) ns | 2.96 (93%) ns | 136 590 M^–1cm^–1 | 675 |  |  | 74 ± 22 | 50 ± 8 | 
O=C([O-])c1c(Cl)c(Cl)c(Cl)c(Cl)c1-c1c2cc(I)c(=O)c(I)c-2oc2c(I)c([O-])c(I)cc12.[Na+].[Na+] [Rose Bengal] |  |  |  |  |  |  |  |  |  |  |  |  |  |  |  |  |  | 0.47
